Test results taken from US5627156A, “Polypeptide agonists for human interleukin-8” (University of Nebraska Board of Regents, priority 1994, dated 1997).
Where no end group is shown, it is not given here.

What was measured:
[1] = Biological activity of the analog compared to analog 1 (test not specified); conditions: C-terminally truncated, residues 4 to 17
Method: The biological activity of an analog of the invention is determined by comparing the analog with naturally occurring IL-8.

[2] = tested on: peripheral blood cells (PMNs, monocytes, lymphocytes); assay: In vivo peripheral blood (PBL) cellularity after ip injection; parameters: species or system C57BL/6 mice; conditions: single ip injection
Method: (§1) A stock solution of 5 mg/ml of Analog 1 was prepared using Dulbecco's phosphate buffered saline D-PBS. The solution was made 5× to compensate for the injection of 0.2 ml ip. The mice were dosed at various times with various doses of analog 1. The ip administration was with a volume of 0.2 ml. In addition, excipient control animals were injected.
(§2) The mice used for the study were C57BL/6 females, which were obtained from Jackson Laboratories. The mice used in these studies were at 8-10 weeks of age and weighed 15-18 g. The mice were housed in conventional cages, fed pelleted food and given water ad libitum.
At various times following injection of Analog 1 the mice were bled from retinal orbital plexus with 40 μl removed into heparanized capillary tubes and the blood analyzed using a Serona Baker 9000 Blood analyzer. In addition, blood films were made and differentials undertaken on at least 200 cells/sample.

[3] = tested on: Polymorphonuclear leukocytes (PMNs); assay: Neutrophil Ca release by flow cytometry (Fluo-3); assay type: cell-based, human
Method: Polymorphonuclear leukocytes (≥95% neutrophils, PMNs) were isolated from heparinized (10 U/ml) blood collected from healthy volunteers. Erythrocytes were removed by 6% dextran sedimentation for 30 minutes at room temperature, and then the supernatant was subjected to Ficoll (Ficoll-Paque, Pharmacia LKB, Uppsala, Sweden) density gradient centrifugation. PMNs were obtained from the pellet. Contaminated erythrocytes were eliminated by one cycle of hypotonic lysis. After an additional washing step the cells were counted and adjusted to a final concentration of 5×10^6 /ml in RPMI 1640 (Gibco, Grand Island, N.Y.). Fluo-3 Loading--The loading procedure with Fluo-3 (Molecular Probes, Eugene, Oreg.) was carried out with PMNs suspended at a density of 5×10^6 /ml in fresh RPMI 1640 containing 2.0 μM Fluo-3 AM (prediluted in dimethyl sulfoxide; Sigma Chemicals) in polypropylene tubes (Falcon 2063, Becton Dickinson). […]
Measurement of [Ca^2+ ] in Flow Cytometry--Before addition of the stimuli the fluorescence channel of the FAGScan Plus (Becton Dickinson) was adjusted to find the basal fluorescence level of loaded but unstimulated PMNs. The samples were excited by an argon laser at 488 nm and emission was measured at 525 nm (green fluorescence, channel FL1). […] The fluorescence of Fluo-3-loadedcells was measured in arbitrary fluorescence units of mean channel fluorescence (channel FL1). […]

[4] = tested on: peritoneal cells (PMNs, monocytes/macrophages, lymphocytes); assay: In vivo chemotactic activity into the peritoneum after ip injection; parameters: species or system C57BL/6 mice
Method: as §1, §2
The mice were sacrificed by ether overdose, the ventral skin reflected and the peritoneum lavaged with three 5 ml lavages of calcium-, magnesium-freeHBSS. At one, two, four, eight and 24 hours, following injection, three to five mice and/or control mice were lavaged and the cells collected in 15 ml tubes. The peritoneal cells were then centrifuged and counted. In addition, a differential was done on the peritoneal cells in a cytospin preparation. For the cytospin, 25 μl of bovine albumin (Sigma Lot #70H0183) was first placed in the bottom of the chamber, and 100 μl of cell suspension (100,000 cells) added. It was spun at 1000 rpm for 5 minutes and then left to dry. Next, they were placed in leukostat fixative solution for 5 seconds followed by 45 seconds in Leukostat solution 1 and 45 seconds in Leukostat solution 2 and finally washed in deionized H2 O for 5 seconds and allowed to dry. The slides were analyzed under microscope for differentials.

[5] = tested on: receptor sites on neutrophils; conditions: cited from earlier work

With “Glu-Leu-Arp-Cys-Gln-Cys-Ile-Lys-Thr-Tyr-Ser-Lys-Pro-Phe (ELRCQCIKTYSKPF) [Analog 2, structural mimic of human IL-8 from amino acid residues 4 to 17]” the “activity compared to analog 1” value [1] was “slight loss of activity”.

For “ELRCQCIKTYSKPFHPK (cysteine pairing not given here) [Analog 1, structural mimic of IL-8 from amino acid residues 4 to 20]”, the PBL cellularity ([2]; FIG. 2) was “significant increase”, the “frequency of PMNs in the peripheral blood” value ([2]; FIG. 5) was “increase” and the “absolute number of PMNs and monocytes in the peripheral blood” value ([2]; FIG. 6) was “significant increase”. The “neutrophil Ca concentration” value ([3]; FIG. 10A and B, concentration not given) was “induced a change in neutrophil Ca concentrations”, the “kinetics of the in vivo chemotactic response in the peritoneum” value ([4]; ip injection of 10 μg, FIG. 7) was “greatest increase observed was in the number of macrophages and PMNs” and the “primary cell type elicited in the peritoneum” value ([4]; ip injection, FIG. 3) was “PMNs”. For the same substance, the “increase in PMN into the peritoneum” value ([4]; ip injection, FIG. 4) was “four-fold”, the “increase in monocyte/macrophages into the peritoneum” value ([4]; ip injection, FIG. 4) was “two-fold” and the “dose of optimal activity on peritoneal cellularity” value ([4]; single ip injection, 0.1-500 μg/animal, FIG. 1) was 10 μg/animal.

In the case of Interleukin 8 [IL-8], the “neutrophil Ca concentration” value ([3]; 77 amino acid IL-8 at 10^-6 M, FIG. 8B) is listed as “the majority of neutrophils showed an increase in calcium concentration” and the Kd [5] is listed as 0.2 nM.
